Measurements taken from article PMC10254170, “Diastereoselective Synthesis of the Borylated D-Galactose Monosaccharide 3-Boronic-3-Deoxy-D-Galactose and Biological Evaluation in Glycosidase Inhibition and in Cancer for Boron Neutron Capture Therapy (BNCT)” (Molecules, 2023).
Read-outs that look alike come from different tables or passages of the source.

Legend:
[1] = target: T1, bovine liver β-glucuronidase (Bos taurus, UniProt A3KMY8); experiment: Glycosidase inhibition, bovine liver β-glucuronidase; assay type: biochemical
T1 construct: purchased Sigma-Aldrich Co; host or cells: bovine liver
T1 sequence (A3KMY8 1-652): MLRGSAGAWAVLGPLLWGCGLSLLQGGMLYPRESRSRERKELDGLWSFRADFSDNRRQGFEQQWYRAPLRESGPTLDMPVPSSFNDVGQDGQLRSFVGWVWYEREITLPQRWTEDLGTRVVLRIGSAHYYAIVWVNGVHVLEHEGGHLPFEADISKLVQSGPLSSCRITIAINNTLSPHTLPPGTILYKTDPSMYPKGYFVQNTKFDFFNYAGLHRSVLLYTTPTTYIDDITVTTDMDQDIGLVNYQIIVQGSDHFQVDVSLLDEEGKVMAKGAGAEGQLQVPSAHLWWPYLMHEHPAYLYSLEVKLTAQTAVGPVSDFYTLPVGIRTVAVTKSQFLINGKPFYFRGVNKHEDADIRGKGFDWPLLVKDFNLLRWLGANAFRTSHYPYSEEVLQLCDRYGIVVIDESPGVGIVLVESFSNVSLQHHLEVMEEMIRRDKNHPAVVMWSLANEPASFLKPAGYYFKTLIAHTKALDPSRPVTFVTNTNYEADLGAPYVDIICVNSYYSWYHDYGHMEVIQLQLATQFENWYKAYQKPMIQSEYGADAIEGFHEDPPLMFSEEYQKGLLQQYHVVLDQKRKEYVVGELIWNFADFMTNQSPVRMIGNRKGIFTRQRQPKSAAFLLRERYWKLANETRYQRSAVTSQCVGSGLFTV
Source text: Glycosidase modulation studies need to explore selectivity as well as potency. Our drugs and controls are therefore screened against a panel of glycosidases in methanol (Table 1) to identify the glycosidase-related disease area(s), selectivity profile, and potency of biological action for each drug. The presence of organic boron covalently bonded to the drug structure also grants a reduced toxicity profile. Following the glycosidase inhibition range recommendations, an IC50 value >250 μm denotes weak inhibition, 100–249 μm denotes moderate inhibition, 10–99 μm good inhibition, 0.1–9 μm potent inhibition, and <0.1 μm very potent inhibition. […] Our boronated D-galactose 7 represents a novel lead in glycosidase inhibition.
The glycosidases screened are the following: rice α-glucosidase, yeast α-glucosidase, Bacillus α-glucosidase, rat intestinal maltase α-glucosidase, almond β-glucosidase, bovine liver β-glucosidase, coffee beans α-galactosidase, bovine liver β-galactosidase, Jack bean α-mannosidase, snail β-mannosidase, Penicillium decumbens α-L-rhamnosidase, bovine kidney α-L-fucosidase, Eschierichia coli β-glucuronidase, bovine liver β-glucuronidase, porcine kidney trehalase, Aspergillus niger amyloglucosidase, and bovine kidney N-acetyl-β-glucosaminidase. The disease areas for each glycosidase are summarized in [1].
The enzymes α-glucosidase (from yeast), β-glucosidases (from almond and bovine liver), α-galactosidase (from coffee beans), β-galactosidase (from bovine liver), α-mannosidase (from Jack bean), β-mannosidase (from snail), α-L-rhamnosidase (from Penicillium decumbens), α-L-fucosidase (from bovine kidney), trehalase (from porcine kidney), β-glucuronidases (from E. coli and bovine liver), amyloglucosidase (from A. niger), para-nitrophenyl glycosides, and various disaccharides were purchased from Sigma-Aldrich Co.
Brush border membranes were prepared from the rat small intestine according to the method of Kessler et al. and were assayed at pH 6.8 for rat intestinal maltase using maltose. For rat intestinal maltase, porcine kidney trehalase, and A. niger amyloglucosidase activities, the reaction mixture contained 25 mM maltose and the appropriate amount of enzyme, and the incubations were performed for 10–30 min at 37 °C. The reaction was stopped by heating at 100 °C for 3 min. After centrifugation (600 g; 10 min), the resulting reaction mixture was added to the Glucose CII-test Wako (Wako Pure Chemical Ind., Osaka, Japan). The absorbance at 505 nm was measured to determine the amount of the released D-glucose. Other glycosidase activities were determined using an appropriate para-nitrophenyl glycoside as substrate at the optimum pH of each enzyme. The reaction mixture contained 2 mM of the substrate and the appropriate amount of enzyme. The reaction was stopped by the addition of 400 mM Na2CO3. The released para-nitrophenol was measured spectrometrically at 400 nm. All reactions run in methanol.

[2] = tested on: HT29 (colorectal carcinoma); experiment: Cancer screening (MTT growth inhibition), HT29; assay type: cell-based; details: 72 h; for Percentage (%) cell growth inhibition: 25 µM of drug; for Percentage (%) cell growth inhibition / inhibition at 25 µM: n = 3, mean ± SEM; for inhibition at 25 µM: HT-29, 25 µM of drug, read-out: Percentage (%) cell growth inhibition
Method: (§1) All test agents were prepared as stock solutions (20 mM) in dimethyl sulfoxide (DMSO) and stored at −20 °C. Cell lines used in the study included: HT29 (colorectal carcinoma), U87 and SJ-G2 (glioblastoma), MCF-7 (breast carcinoma), A2780 (ovarian carcinoma), H460 (lung carcinoma), A431 (skin carcinoma), Du145 (prostate carcinoma), BE2-C (neuroblastoma), MiaPaCa-2 (pancreatic carcinoma), SMA560 (spontaneous murine astrocytoma), and ADDP (Cis Res Ovarian), together with one non-tumor-derived normal breast cell line (MCF10A). All cell lines were incubated in a humidified atmosphere with 5 % CO2 at 37 °C. The cancer cell lines were maintained in Dulbecco’s modified Eagle’s medium (DMEM; Sigma, Australia) supplemented with fetal bovine serum (10%), sodium pyruvate (10 mM), penicillin (100 IUmL^−1), streptomycin (100 µg mL^−1), and L-glutamine (2 mM).
(§2) Growth inhibition was determined by plating cells in duplicate in medium (100 µL) at a density of 2500–4000 cells per well in 96-well plates. On day 0 (24 h after plating), when the cells are in logarithmic growth, medium (100 µL) with or without the test agent was added to each well. After 72 h of drug exposure, growth inhibitory effects were evaluated using the (3-(4,5-dimethyltiazol-2-yl)-2,5-diphenyltetrazolium bromide) (MTT) assay and absorbance read at 540 nm. The percentage growth inhibition was calculated at a fixed concentration of 25 µM, based on the difference between the optical density values on day 0 and those at the end of drug exposure. Each data point is the mean ± the standard error of the mean (SEM) calculated from three replicates, which were performed on separate occasions and in separate cell line passages.

MCF-7 (breast carcinoma) = experiment: Cancer screening (MTT growth inhibition), MCF-7; assay type: cell-based; details: 72 h; for Percentage (%) cell growth inhibition: 25 µM of drug; for Percentage (%) cell growth inhibition / inhibition at 25 µM: n = 3, mean ± SEM; for inhibition at 25 µM: MCF7, 25 µM of drug, read-out: Percentage (%) cell growth inhibition
Method: as §1, §2

[3] = tested on: A2780 (ovarian carcinoma); experiment: Cancer screening (MTT growth inhibition), A2780; assay type: cell-based; details: 72 h; for Percentage (%) cell growth inhibition: 25 µM of drug; for Percentage (%) cell growth inhibition / inhibition at 25 µM: n = 3, mean ± SEM; for inhibition at 25 µM: A2780, 25 µM of drug, read-out: Percentage (%) cell growth inhibition
Method: as §1, §2

[4] = at 100 μM, in methanol, read-out: inhibition %
[5] = at 100 μM, read-out: NI: No inhibition

Molecule	Percentage (%) cell growth inhibition [2] [%]	Percentage (%) cell growth inhibition (MCF-7 (breast carcinoma)) [%]	Percentage (%) cell growth inhibition [3] [%]	inhibition at 100 µM [1, 4] [%]	inhibition at 100 µM [1, 5] [%]	inhibition at 25 µM ([2]; Homo sapiens) [%]	inhibition at 25 µM (MCF-7 (breast carcinoma); Homo sapiens) [%]	inhibition at 25 µM ([3]; Homo sapiens) [%]	further results
N[C@@H](Cc1ccc(B(O)O)cc1)C(=O)O [^10B-BPA]	15 ± 4	1 ± 3	8 ± 4						NI: No inhibition ([1]; at 100 μM): NI (No inhibition (less than 50% inhibition at 100 μM)); inhibition % ([1]; at 100 μM, in methanol): 0%
CC1(C)OCC(C2OC3OC(C)(C)OC3C2[B-]23OCC[NH+]2CCO3)O1 [Compound 6, 3-Deoxy-3-Boronodiethanolamine-1,2:5,6-Di-O-isopropylidene-α-D-galactofuranose]				12.4	< 50	10 ± 5	14 ± 5	10 ± 5	
OCC1OC(O)C(O)C(B(O)O)C1O [Compound 7, 3-Boronic-3-Deoxy-D-galactose]						-2 ± 2	2 ± 2	8 ± 3	inhibition at 1000 µM ([1]; at 1000 μM, in methanol, read-out: inhibition %): 32.4%; inhibition at 1000 µM ([1]; at 1000 μM, read-out: NI: No inhibition): < 50%; GI50 ([2]; Homo sapiens, HT-29, dose response, read-out: GI50 = Concentration that inhibits cell growth by 50%): > 50 µM; GI50 (MCF-7 (breast carcinoma); Homo sapiens, MCF7, dose response, read-out: GI50 = Concentration that inhibits cell growth by 50%): > 50 µM; GI50 ([3]; Homo sapiens, A2780, dose response, read-out: GI50 = Concentration that inhibits cell growth by 50%): > 50 µM
N[C@@H](Cc1ccc(B(O)O)cc1)C(=O)O [BPA, 4-borono-L-phenylalanine]				7.4	< 50	14	< 0	4 ± 1	
Borocaptate sodium [BSH]	3 ± 2	15 ± 3	2 ± 5						NI: No inhibition ([1]; at 1000 μM): NI (No inhibition (less than 50% inhibition at 1000 μM)); inhibition % ([1]; at 1000 μM, in methanol): 19.6%
